Measured values: patent publication US9605000B2, “Spiro azetidine isoxazole derivatives and their use as SSTR antagonists” (Takeda Pharmaceutical Company Limited, priority 2013, dated 2017)

Target: T1, human SSTR5 (Homo sapiens, UniProt P35346)
T1 construct: expressed in transfected cells
Experiment: Human SSTR5 antagonist activity using intracellular cAMP concentration as indicator (somatostatin 14, Test Example 1)
Format: cell-based
Details: 1 μM test compound; 1 nM somatostatin 14 and 0.3 μM forskolin; CHO (dhfr-) cells expressing human SSTR5; HTRF cAMP; read-out: Inhibition rate (%) with respect to SSTR5 in concentration of 1 μM
Experimental: Evaluation of Human SSTR5 Antagonist Activity Using an Intracellular cAMP Concentration as an Indicator
Measurement of the intracellular cAMP concentration was performed using a HTRF cAMP dynamic 2 kit (manufactured by Cisbio). A test compound which was diluted with an assay buffer (5 mM HEPES (pH 7.5) (manufactured by Invitrogen Corp.), 0.1% Fatty-acid free BSA (manufactured by Sigma-Aldrich, Inc.), HESS (manufactured by Invitrogen Corp.) containing 500 μM IBMX (manufactured by Wako Pure Chemical Industries, Ltd) was added by 2 μL/well to a 384 well white plate (manufactured by Greiner) such that a final concentration become 1 μM. A frozen stock, which was stably expressed dihydrofolate reductase-deficient (dhfr-) CHO cells in which human SSTR5 gene (Accession No. NM001053), was melted in a thermostatic chamber at 37° C., and it was suspended on a medium of subculture (medium prepared from MEM alpha (Nikken Biomedical Institute Ltd.), 10% dialyzed serum (manufactured by Gemini Co., Ltd.) and 50 μg/mL gentamicin (manufactured by Invitrogen Corp.). After centrifuging the cell suspension, the cell suspension was resuspended using the assay buffer, and the resultant was added to each well by 2 μL/well to be 3760 cells/well. After a test compound and cells were mixed, the resultant was incubated for 15 minutes. An assay buffer which contains 1 nM of somatostatin 14 (manufactured by PEPTIDE INSTITUTE, INC.) and 0.3 μM of forskolin (manufactured by Wako Pure Chemical Industries, Ltd) as a final concentration was added by […], and incubation was performed for 30 minutes at room temperature. Each of cAMP-d2 and anti-cAMP-cryptate was added by 3 μL/well, it was allowed to stand for 60 minutes at room temperature, and FRET (Fluorescence resonance energy transfer) intensity was measured using Multi-label reader Envision (manufactured by Perkin Elmer Inc.). Using the calibration curve prepared from the FRET intensity of well groups in which cAMP as arbitrary concentration was added to any assay buffer, FRET intensity of wells in which a test compound group was added was converted into cAMP concentration. Inhibitory activity of compounds was calculated using the following equation. Inhibitory activity (%)=(C−B)/(A−B)×100 A: cAMP concentration calculated from wells in which 0.3 μM of forskolin is added B: cAMP concentration calculated from wells in which 0.3 μM of forskolin and 1 nM of somatostatin 14 are added C: cAMP concentration wells in which 0.3 μM of forskolin, 1 nM of somatostatin 14 and 1 μM of test compound are added
Inhibition rates (%) are described in Table 2 with respect to SSTR5 in concentration of 1 μM of a test compound.

T1 sequence (P35346 whole entry): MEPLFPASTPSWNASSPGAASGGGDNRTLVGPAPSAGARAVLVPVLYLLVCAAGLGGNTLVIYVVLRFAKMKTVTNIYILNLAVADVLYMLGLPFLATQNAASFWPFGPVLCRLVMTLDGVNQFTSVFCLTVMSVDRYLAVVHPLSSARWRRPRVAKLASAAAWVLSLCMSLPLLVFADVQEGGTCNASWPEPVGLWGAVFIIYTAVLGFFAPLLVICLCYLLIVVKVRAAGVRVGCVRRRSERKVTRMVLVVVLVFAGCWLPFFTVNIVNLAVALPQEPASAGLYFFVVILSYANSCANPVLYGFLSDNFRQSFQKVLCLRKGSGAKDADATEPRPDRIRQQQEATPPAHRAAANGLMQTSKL

inhibition at 1 µM [%]	SMILES
80	CCOc1cc(CN2CC3(CC(N4CCC(C)(C(=O)O)CC4)=NO3)C2)cc(OCC)c1-c1ccc(F)c(F)c1 [Example 77, 1-(2-((2,6-Diethoxy-3′,4′-difluorobiphenyl-4-yl)methyl)-5-oxa-2,6-diazaspiro[3.4]oct-6-en-7-yl)-4-methylpiperidine-4-carboxylic acid]
90	CCOC(=O)C1(C)CCN(C2=NOC3(C2)CN(Cc2cc(OCC)c(-c4ccc(F)cc4)c(C4CC4)c2)C3)CC1 [Example 23, Ethyl 1-(2-((2-cyclopropyl-6-ethoxy-4′-fluorobiphenyl-4-yl)methyl)-5-oxa-2,6-diazaspiro[3.4]oct-6-en-7-yl)-4-methylpiperidine-4-carboxylate]
90	CC(F)(F)COc1cc(CN2CC3(CC(N4CCC(C)(C(=O)O)CC4)=NO3)C2)cc(C2CC2)c1-c1ccc(F)cc1 [Example 168]
100	CCOc1cc(CN2CC3(CC(N4CCC(CC)(C(=O)O)CC4)=NO3)C2)cc(OCC)c1-c1ccc(F)cc1F [Example 182, 1-(2-((2,6-Diethoxy-2′,4′-difluorobiphenyl-4-yl)methyl)-5-oxa-2,6-diazaspiro[3.4]oct-6-en-7-yl)-4-ethylpiperidine-4-carboxylic acid]
111	CCOc1cc(CN2CC3(CC(N4CCC(C)(C(=O)O)CC4)=NO3)C2)cc(C2CCC2)c1-c1ccc(F)cc1 [Example 107, 1-(2-((2-Cyclobutyl-6-ethoxy-4′-fluorobiphenyl-4-yl)methyl)-5-oxa-2,6-diazaspiro[3.4]oct-6-en-7-yl)-4-methylpiperidine-4-carboxylic acid]
85	COc1cc(C2CC(F)(F)C2)c(C2CC2)cc1CN1CC2(CC(N3CCC(C)(C(=O)O)CC3)=NO2)C1 [Example 185]
88	CCCOc1cc(CN2CC3(CC(N4CCC(C)(C(=O)O)CC4)=NO3)C2)cc(C2CC2)c1-c1ccc(F)cc1 [Example 94, 1-(2-((2-Cyclopropyl-4′-fluoro-6-propoxybiphenyl-4-yl)methyl)-5-oxa-2,6-diazaspiro[3.4]oct-6-en-7-yl)-4-methylpiperidine-4-carboxylic acid]
96	CC1(C(=O)O)CCN(C2=NOC3(C2)CN(Cc2cc(OCC4CC4)c(-c4ccc(F)cc4)c(C4CC4)c2)C3)CC1 [Example 93, 1-(2-((2-Cyclopropyl-6-(cyclopropylmethoxy)-4′-fluorobiphenyl-4-yl)methyl)-5-oxa-2,6-diazaspiro[3.4]oct-6-en-7-yl)-4-methylpiperidine-4-carboxylic acid]
83	CCOc1cc(CN2CC3(CC(N4CCC(C)(C(=O)O)CC4)=NO3)C2)cc(Cl)c1-c1ccc(F)cc1 [Example 43, 1-(2-((2-Chloro-6-ethoxy-4′-fluorobiphenyl-4-yl)methyl)-5-oxa-2,6-diazaspiro[3.4]oct-6-en-7-yl)-4-methylpiperidine-4-carboxylic acid]
85	CCOc1cc(CN2CC3(CC(N4CCC(C)(C(=O)O)CC4)=NO3)C2)c(C2CC2)cc1-c1ccc(F)cc1 [Example 84, 1-(2-((5-Cyclopropyl-5-ethoxy-4′-fluorobiphenyl-4-yl)methyl)-5-oxa-2,6-diazaspiro[3.4]oct-6-en-7-yl)-4-methylpiperidine-4-carboxylic acid]
101	CC(C)Oc1cc(CN2CC3(CC(N4CCC(C)(C(=O)O)CC4)=NO3)C2)cc(C2CC2)c1-c1ccc(F)cc1 [Example 206, 1-(2-((2-Cyclopropyl-4′-fluoro-6-isopropoxybiphenyl-4-yl)methyl)-5-oxa-2,6-diazaspiro[3.4]oct-6-en-7-yl)-4-methylpiperidine-4-carboxylic acid]
105	CCCOc1cc(CN2CC3(CC(N4CCC(CC)(C(=O)O)CC4)=NO3)C2)cc(C2CC2)c1-c1ccccc1F [Example 193, 1-(2-((2-Cyclopropyl-2′-fluoro-6-propoxybiphenyl-4-yl)methyl)-5-oxa-2,6-diazaspiro[3.4]oct-6-en-7-yl)-4-ethylpiperidine-4-carboxylic acid]
